Paper PMC8480901 (PLoS ONE, 2021)
Values joined by “and” are separate entries in the source; they are usually repeats but may differ in a detail not shown here. Identical values can stand only once.

Test system: human PBMCs
Experiment: LPS-induced cytokine and chemokine levels in human PBMC supernatant (Luminex, ELISA)
Format: cell-based
Settings: for CCl2, % reduction / CXCL1 % reduction / CXCL2 % reduction / MMP9 % reduction / CCl2, Mean / CXCL1, Mean / CXCL2, Mean / MMP9, Mean / CCl2, individual value / CXCL1, individual value / CXCL2, individual value / MMP9, individual value: LPS-stimulated PBMC supernatant; for CCl2, Mean / CXCL1, Mean / CXCL2, Mean / MMP9, Mean: sample size 2; for CCl2, individual value / CXCL1, individual value / CXCL2, individual value / MMP9, individual value: single replicate
[1] = LPS-stimulated human PBMC supernatant, 0.03 µM

## C=C[C@]1(C)C[C@@H](OC(=O)CS[C@@H]2CC[C@@H](N)C[C@H]2O)[C@]2(C)[C@H](C)CC[C@]3(CCC(=O)[C@H]32)[C@@H](C)[C@@H]1O [Lefamulin]
0.03 µM
  CCl2, % reduction: -3.52%
  CXCL1 % reduction: -11%
  CXCL2 % reduction: -3%
  MMP9 % reduction: -7%
  CCl2, Mean: 1309 pg/mL
  CXCL1, Mean: 6607 pg/mL
  CXCL2, Mean: 5213 pg/mL
  MMP9, Mean: 3113 pg/mL
  CCl2, individual value: 1274 pg/mL and 1344 pg/mL
  CXCL1, individual value: 6599 pg/mL and 6616 pg/mL
  CXCL2, individual value: 5117 pg/mL and 5308 pg/mL
  MMP9, individual value: 3135 pg/mL and 3092 pg/mL
0.1 µM
  CCl2, % reduction: -1%
  CXCL1 % reduction: -3%
  CXCL2 % reduction: 3%
  MMP9 % reduction: 6%
  CCl2, Mean: 1279 pg/mL
  CXCL1, Mean: 6126 pg/mL
  CXCL2, Mean: 4904 pg/mL
  MMP9, Mean: 2899 pg/mL
  CCl2, individual value: 1178 pg/mL and 1379 pg/mL
  CXCL1, individual value: 5750 pg/mL and 6502 pg/mL
  CXCL2, individual value: 4854 pg/mL and 4955 pg/mL
  MMP9, individual value: 2852 pg/mL and 2946 pg/mL
0.3 µM
  CCl2, % reduction: -8%
  CXCL1 % reduction: -11%
  CXCL2 % reduction: -1.83%
  MMP9 % reduction: -13%
  CCl2, Mean: 1360 pg/mL
  CXCL1, Mean: 6577 pg/mL
  CXCL2, Mean: 5150 pg/mL
  MMP9, Mean: 3213 pg/mL
  CCl2, individual value: 1440 pg/mL and 1281 pg/mL
  CXCL1, individual value: 6950 pg/mL and 6204 pg/mL
  CXCL2, individual value: 5157 pg/mL and 5144 pg/mL
  MMP9, individual value: 3328 pg/mL and 3097 pg/mL
1 µM
  CCl2, % reduction: -4.42%
  CXCL1 % reduction: -4.56%
  CXCL2 % reduction: 2.67%
  MMP9 % reduction: -10%
  CCl2, Mean: 1320 pg/mL
  CXCL1, Mean: 6222 pg/mL
  CXCL2, Mean: 4923 pg/mL
  MMP9, Mean: 3154 pg/mL
  CCl2, individual value: 1176 pg/mL and 1464 pg/mL
  CXCL1, individual value: 5695 pg/mL and 6750 pg/mL
  CXCL2, individual value: 4726 pg/mL and 5120 pg/mL
  MMP9, individual value: 3230 pg/mL and 3077 pg/mL
3 µM
  CCl2, % reduction: -29%
  CXCL1 % reduction: -12%
  CXCL2 % reduction: -3.75%
  MMP9 % reduction: -3%
  CCl2, Mean: 1626 pg/mL
  CXCL1, Mean: 6685 pg/mL
  CXCL2, Mean: 5247 pg/mL
  MMP9, Mean: 3044 pg/mL
  CCl2, individual value: 1606 pg/mL and 1647 pg/mL
  CXCL1, individual value: 6614 pg/mL and 6757 pg/mL
  CXCL2, individual value: 5389 pg/mL and 5104 pg/mL
  MMP9, individual value: 3098 pg/mL and 2991 pg/mL
10 µM
  CCl2, % reduction: -40%
  CXCL1 % reduction: -16%
  CXCL2 % reduction: 2.3%
  MMP9 % reduction: 13%
  CCl2, Mean: 1763 pg/mL
  CXCL1, Mean: 6870 pg/mL
  CXCL2, Mean: 4942 pg/mL
  MMP9, Mean: 2781 pg/mL
  CCl2, individual value: 1714 pg/mL and 1811 pg/mL
  CXCL1, individual value: 6794 pg/mL and 6946 pg/mL
  CXCL2, individual value: 4972 pg/mL and 4912 pg/mL
  MMP9, individual value: 2867 pg/mL and 2696 pg/mL
30 µM
  CCl2, % reduction: 8%
  CXCL1 % reduction: 7%
  CXCL2 % reduction: 6%
  MMP9 % reduction: 27%
  CCl2, Mean: 1163 pg/mL
  CXCL1, Mean: 5540 pg/mL
  CXCL2, Mean: 4765 pg/mL
  MMP9, Mean: 2563 pg/mL
  CCl2, individual value: 1184 pg/mL and 1143 pg/mL
  CXCL1, individual value: 5594 pg/mL and 5487 pg/mL
  CXCL2, individual value: 4928 pg/mL and 4603 pg/mL
  MMP9, individual value: 2485 pg/mL and 2640 pg/mL
100 µM
  CCl2, % reduction: 92%
  CXCL1 % reduction: 73%
  CXCL2 % reduction: 2.31%
  MMP9 % reduction: 11%
  CCl2, Mean: 141 pg/mL
  CXCL1, Mean: 1638 pg/mL
  CXCL2, Mean: 4941 pg/mL
  MMP9, Mean: 2809 pg/mL
  CCl2, individual value: 141 pg/mL
  CXCL1, individual value: 1562 pg/mL and 1715 pg/mL
  CXCL2, individual value: 4788 pg/mL and 5094 pg/mL
  MMP9, individual value: 2812 pg/mL and 2806 pg/mL
[1]
  GM-CSF % reduction: -7%
  GM-CSF [pg/mL], Mean: 705 pg/mL
  GM-CSF [pg/mL], individual value: 721 pg/mL and 689 pg/mL
  IL-1β % reduction: -4.62%
  IL-1β [pg/mL], Mean: 13375 pg/mL
  IL-1β [pg/mL], individual value: 13502 pg/mL and 13249 pg/mL
  IL-6 % reduction: 9%
  IL-6 [pg/mL], Mean: 31710 pg/mL
  IL-6 [pg/mL], individual value: 32710 pg/mL and 30710 pg/mL
  IL-8 % reduction: -7%
  IL-8 [pg/mL], Mean: 3113 pg/mL
  IL-8 [pg/mL], individual value: 3135 pg/mL and 3092 pg/mL
